Data taken from patent US20150209474A1, “METHOD FOR PRODUCING AN ALGINATE COATED TITANIUM DIOXIDE SCAFFOLD” (CORTICALIS AS, priority 2012, published 2015).
Ends that are not written are not given here.

Key:
[1] = system: primary human osteoblasts; test: Cytotoxicity assay: LDH activity in culture medium; format: cell-based; conditions: for LDH activity compared to alginate-coated scaffolds without SIM: 14-day period
Experimental: Cells from passages 7-9 were seeded on scaffolds at a density of 400.000 cells/ml. […] Scaffolds soaked with culture medium were placed in 48-well culture plates. […] The culture medium was replaced every other day. Collected medium was saved for use in cytotoxicity, alkaline phosphatase (ALP) activity and protein expression assays.

[2] = system: MC3T3-E1 cells; test: Gene expression of adhesion and osteoblast markers by real-time RT-PCR, cells on alginate hydrogels; format: cell-based, mouse; conditions: 50 μg/ml in 2% alginate gel
Experimental: (§1) The mouse osteoblastic cell line MC3T3-E1 (DSMZ, Braunschweig, Germany) was maintained as previously described (Tiainen H et al., 2011). Before seeding, 24-well culture plates containing crosslinked alginate hydrogels were washed with 750 μl of culture media to remove the excess of CaCl2. After evaluation of the efficiency of cell adhesion on 2% alginate gel using different cell densities, for the final experiments, cells were seeded at a density of 100 000 cells/well. Media was refreshed twice a week. Culture media was collected 24 h after seeding to study cell viability. Cells were harvested at days 14 and 21 to analyze gene expression of adhesion and osteogenic-related markers using real-time RT-PCR. Cultures were routinely observed using light microscopy (Leica DMIRB, Leica Microsystems Wetzlar GmbH, Germany).
Total RNA was isolated using Tripure® (Roche Diagnostics, Mannheim, Germany), according to the manufacturer's protocol. Total RNA was quantified at 260 nm using a Nanodrop spectrophotometer (NanoDrop Technologies, Wilmington, Del., USA).
The same amount of RNA (350 ng) was reverse transcribed to cDNA using high capacity RNA-to-cDNA kit (Applied Biosystems, Foster City, Calif.), according to the protocol of the supplier. Aliquots of each cDNA were frozen (−20° C.) until the PCR reactions were carried out.
Real-time PCR was performed in the Lightcycler 480® (Roche Diagnostics, Mannheim, Germany) using SYBR green detection. Real-time PCR was done for two reference genes (18SrRNA and glyceraldehyde-3-phosphate dehydrogenase (GAPDH)) and ten target genes (integrin alpha 8 (Itga8), integrin beta1 (Itgb1), integrin beta 3 (Itgb3), fibronectin 1 (Fn1), bone morphogenetic protein 2 (Bmp2), collagen type I (Coll-I), bone sialoprotein (Bsp), alkaline phosphatase (Alp), osteocalcin (Oc) and osteopontin (Opn)).
The primer sequences are detailed in Table 2. Reaction conditions and relative quantification have been done as previously described (Tiainen H et al., 2011).

[3] = Peptide 2 release profile from TiO2 scaffolds coated with 2% alginate gel (UV-Vis); format: physicochemical; conditions: P2-alginate-coated scaffolds, distilled water, 37° C.
Experimental: In order to mimic cell culture conditions, the samples were agitated on an orbital shaker at 200 rpm (IKA® Schüttler MTS 2, Germany) for 6 h at 37° C. and in humidity conditions (using a distilled water container). Then, samples were maintained at 37° C. in a humidified atmosphere for up to 21 days. At prefixed time points (2d, 5d, 7d, 9d, 12d, 14d, 16d, 19d and 21d), distilled water was collected and fresh distilled water was added into each well. Sample absorbances were analyzed by UV-Vis spectrophotometer (PerkinElmer® Lambda 25 UV/Vis Systems, USA) at a wavelength of 206 nm to determine the amount of peptide released. In parallel, TiO2 scaffolds coated with one layer of 2% alginate gel were used as control to subtract absorbance values obtained from degradation products from alginate.
Relative absorbance units were correlated with the amount of peptide released using a linear standard curve for each time point and the cumulative P2 released was then calculated. The experiment was performed in triplicate.

[4] = Peptide release profile from 2% alginate hydrogel (fluorescence spectroscopy); format: physicochemical
Experimental: To study the peptide release profile, P2 was labeled with FITC. The release of peptide contained into the 2% alginate hydrogel (50 μg/ml) was quantified by fluorescence spectroscopy. First, alginate hydrogels were washed with culture media to remove the excess of CaCl2. Then, 750 μl of cell culture media were added onto peptide loaded alginate hydrogel. The samples were incubated at 37° C. and 5% CO2 for 21 days and cell culture media was changed twice a week. At prefixed time points (24 h, 4 d, 7 d, 11 d, 14 d, 18 d and 21 d), supernatants were collected and analyzed by fluorescence spectroscopy (λ ex 490 nm and λ em 525 nm) to determine the amount of peptide released to the media. The amount of peptide released during the washing step was also measured. The experiment was performed three times, and each sample analyzed in triplicate.
Relative fluorescence units were correlated with the amount of peptide released using a linear standard curve for each time point.

[5] = system: MC3T3-E1 cells; test: Cell viability: LDH activity in culture media, cells on alginate hydrogels; format: cell-based, mouse; conditions: 50 μg/ml in alginate gel
Experimental: as §1
The LDH activity determined in the culture media after 24 h was taken as an indicator of membrane leakage or cell lysis. The activity of the cytosolic enzyme was estimated as previously described (Rupert M et al., 2011).

CCC(C)(C)C(=O)O[C@H]1C[C@@H](C)C=C2C=C[C@H](C)[C@H](CC[C@@H]3C[C@@H](O)CC(=O)O3)[C@H]21 [SIM, simvastatin]
LDH activity compared to alginate-coated scaffolds without SIM ([1]; scaffolds with 10 nM SIM): Neither of the SIM concentrations caused a significant increase | LDH activity compared to alginate-coated scaffolds without SIM ([1]; scaffolds with 10 μM SIM): Neither of the SIM concentrations caused a significant increase | LDH activity, scaffolds with 10 μM SIM compared to scaffolds with 10 nM SIM ([1]; throughout the 14-day period): higher

PHQPMQPQPPVHPMQPLPPQPPLPP (Synthetic biomineralizing peptide) [Peptide P6]
ALP mRNA levels compared to control ([2]; 14 days): significantly decreased | Expression of Opn compared to control ([2]; 14 days): decreased significantly | Fn1 mRNA compared to control ([2]; 14 days): decreased significantly | Itgb1 mRNA levels compared to control ([2]; 14 days): significantly decreased | Itgb3 mRNA compared to control ([2]; 14 days): decreased significantly | Bmp2 relative mRNA levels ([2]; 14 days of treatment): increased significantly | ALP mRNA levels compared to control ([2]; 21 days): significantly decreased | Itgb1 mRNA levels compared to EMD ([2]; 21 days): reduced significantly | Itgb3 and Fn1 mRNA compared to control ([2]; 21 days): no differences | Oc mRNA levels compared to control ([2]; 21 days): increased

PLVPSQPLVPSQPLVPSQPQPPLPP [Peptide P2]
Expression of Opn compared to control ([2]; 14 days): decreased significantly | Fn1 mRNA compared to control ([2]; 14 days): decreased significantly | Itgb1 mRNA levels compared to control ([2]; 14 days): significantly decreased | Itgb3 mRNA compared to control ([2]; 14 days): decreased significantly | ALP mRNA levels compared to control ([2]; 21 days): significantly decreased | Bmp2 relative mRNA levels compared to EMD ([2]; 21 days): decreased | Itgb3 and Fn1 mRNA compared to control ([2]; 21 days): no differences | amount of peptide released after 5 days [3]: 9.4 % of the cumulative amount rel | burst release of the peptide during the first 2 days of incubation [3]: 42.8 % of the cumulative amount of P2 released after 21 days | burst release of the peptide during the first 24 h of incubation ([4]; P2 FITC-labeled, 50 μg/ml in 2% alginate hydrogel, culture media, 37° C.): 54.67% | total peptide theoretically contained in the hydrogel not released after 21 days ([4]; P2 FITC-labeled, 2% alginate hydrogel, 21 days): 5.6% | peptide slowly released up to 11 days ([4]; P2 FITC-labeled, 2% alginate hydrogel, after the first 24 h, up to 11 days): 25.8% | loaded peptide released during the washing step ([4]; washing of alginate hydrogels with culture media to remove excess CaCl2): 12.7% | cell viability compared to EMD ([5]; after 24 h): significantly increased

PLVPSSPLVPCCPLVPCCPSPPLPP (Synthetic biomineralizing peptide) [Peptide P5]
Oc mRNA levels compared to control ([2]; 21 days): increased | Expression of Itga8 compared to control ([2]; "after days of culture" (number not given)): increased | Itga8 expression ([2]; after 21 days of treatment): markedly | toxic effects compared to EMD and to untreated alginate gel ([5]; 24 h): significantly lower
